Test results reported in patent publication US8569336B2, “Compounds for the treatment of inflammatory disorders” (priority 2008, dated 2013).
Read-outs that look alike come from different tables or passages of the source.

What was measured:
[1] = Area under the curve determinations of plasma levels in rats (rrAUC), oral 10 mg/kg; type: in vivo; settings: for AUC: rat, read-out: RR AUC (rapid rat AUC, rrAUC)
[2] = system: TNF-α production from human whole blood; assay: Inhibition of TNF-α production from human whole blood (hWBA), LPS stimulated, ELISA; type: cell-based; settings: Homo sapiens, TNF-α by ELISA, read-out: hWBA (IC50)
[3] = biological target: T1, purified catalytic domain of recombinant human TACE (rhTACEc) (Homo sapiens, UniProt P78536, N452Q/S266A); assay: TACE kinetic assay: cleavage of internally quenched peptide substrate TNF-FRET 2 (Ki); type: biochemical; settings: TNF-FRET 2 substrate
T1 construct: 6xHis (C); made in house; host or cells: baculovirus/Hi5 insect cells
T1 sequence (P78536 215-477 S266A/N452Q): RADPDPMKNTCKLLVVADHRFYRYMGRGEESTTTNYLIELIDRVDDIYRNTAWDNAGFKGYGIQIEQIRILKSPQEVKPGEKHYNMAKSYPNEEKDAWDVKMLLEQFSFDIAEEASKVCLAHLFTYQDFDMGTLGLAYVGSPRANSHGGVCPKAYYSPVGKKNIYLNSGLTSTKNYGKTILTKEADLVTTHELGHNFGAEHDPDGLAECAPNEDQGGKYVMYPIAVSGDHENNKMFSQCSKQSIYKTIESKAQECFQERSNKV

[4] = plasma, blood collected 0.5-6 h post-dosing
[5] = human whole blood diluted 1:1, LPS stimulated
[6] = 3.5 h, human whole blood diluted 1:1, LPS stimulated, 3.5 h
[7] = LPS-stimulated human whole blood

AUC ([1]; plasma 0.5-6 h post-dosing) | IC50 [2, 6] | Ki ([3]; read-out: Ki) | Compound | other results
– | – | – | CNS(=O)(=O)c1cc2oc([C@]3(CN4Cc5ccc(OC)cc5C4=O)NC(=O)NC3=O)cc2cc1C [Compound 2480] | AUC [1, 4]: 0.212 µM·h; IC50 [2, 5]: 1390 nM; Ki ([3]; Ki): 0.43 nM
9.34 µM·h | 624 nM | 0.179 nM | COc1ccc2c(c1)C(=O)N(C[C@@]1(c3cc4nc(NC5CC5)ccc4o3)NC(=O)NC1=O)C2 [Compound 2148] | –
– | – | 0.38 nM | COc1ccc2c(c1)C(=O)N(C[C@@]1(c3cc4cc(C5(C(N)=O)CC5)ccc4o3)NC(=O)NC1=O)C2 [Compound 2421] | AUC [1, 4]: 0.037 µM·h; IC50 [2, 5]: 886 nM
– | – | 1.15 nM | COc1ccc2c(c1F)C(=O)N(C[C@@]1(c3cc4ncc(C(=O)NC5CC5)cc4o3)NC(=O)NC1=O)C2 [Compound 1909] | AUC ([1]; plasma 0.5-6 h): 0.066 µM·h; IC50 [2, 7]: 585 nM
– | – | 0.58 nM | COc1ccc2c(c1)C(=O)N(C[C@@]1(c3cc4cc(C(=NO)N5CCN(C6CC6)CC5)ccc4o3)NC(=O)NC1=O)C2 [Compound 2455] | AUC [1, 4]: 0.013 µM·h; IC50 [2, 5]: 885 nM
– | – | 0.557 nM | CCOc1ccc2c(c1F)C(=O)N(C[C@@]1(c3cc4nc(N5CCN(CC)CC5)ccc4o3)NC(=O)NC1=O)C2 [Compound 903] | AUC ([1]; plasma 0.5-6 h): 1 µM·h; IC50 [2, 7]: 193 nM
– | – | 1.25 nM | COc1ccc2c(c1F)C(=O)N(C[C@@]1(c3cc4nc(C)c(N5CCC5=O)cc4o3)NC(=O)NC1=O)C2 [Compound 1922] | AUC ([1]; plasma 0.5-6 h): 0.088 µM·h; IC50 [2, 7]: 281 nM
– | – | 0.71 nM | COc1ccc2c(c1F)C(=O)N(C[C@@]1(c3cc4nc(Nc5cncc(F)c5)ccc4o3)NC(=O)NC1=O)C2 [Compound 1733] | AUC ([1]; plasma 0.5-6 h): 0.904 µM·h; IC50 [2, 7]: 454 nM
0.018 µM·h | 553 nM | 0.384 nM | COc1ccc2c(c1)C(=O)N(C[C@@]1(c3cc4c(-c5cccnc5)nccc4o3)NC(=O)NC1=O)C2 [Compound 2235] | –
1.33 µM·h | 750 nM | 0.395 nM | COc1ccc2c(c1)C(=O)N(C[C@@]1(c3cc4nc(Nc5cnccn5)ccc4o3)NC(=O)NC1=O)C2 [Compound 2129] | –
1.77 µM·h | 1670 nM | 0.599 nM | COc1ccc2c(c1)C(=O)N(C[C@@]1(c3cc4cc(-c5cccnc5)cnc4o3)NC(=O)NC1=O)C2 [Compound 2254] | –
– | – | 0.5 nM | COc1ccc2c(c1F)C(=O)N(C[C@@]1(c3cc4nc(N5C[C@@H](O)CC5=O)ccc4o3)NC(=O)NC1=O)C2 [Compound 1501] | AUC ([1]; plasma 0.5-6 h): 0.667 µM·h; IC50 [2, 7]: 131 nM
3.08 µM·h | 171 nM | 0.902 nM | COc1ccc2c(c1)C(=O)N(C[C@@]1(c3cc4nc(-c5cccnc5)ccc4o3)NC(=O)NC1=O)C2 [Compound 2107] | –
– | – | – | COc1ccc2c(c1)C(=O)N(C[C@@]1(c3cc4cc(C(=O)N5CCN(C)CC5)ccc4o3)NC(=O)NC1=O)C2 [Compound 2426] | AUC [1, 4]: 0.057 µM·h; IC50 [2, 5]: 850 nM; Ki ([3]; Ki): 1.26 nM
0.02 µM·h | 949 nM | 0.54 nM | COc1ccc2c(c1)C(=O)N(C[C@@]1(c3cc4c(-c5ccncc5)nccc4o3)NC(=O)NC1=O)C2 [Compound 2236] | –
– | – | 0.3 nM | COc1ccc2c(c1F)C(=O)N(C[C@@]1(c3cc4nc(N5CCC5=O)ccc4o3)NC(=O)NC1=O)C2 [Compound 1522] | AUC ([1]; plasma 0.5-6 h): 4.63 µM·h; IC50 [2, 7]: 211 nM
– | – | 0.47 nM | COc1ccc2c(c1F)C(=O)N(C[C@@]1(c3cc4cc([C@]5(C)NC(=O)NC5=O)c(F)cc4o3)NC(=O)NC1=O)C2 (single isomer, unassigned) [Compound 1327] | AUC ([1]; plasma 0.5-6 h): 2.97 µM·h; IC50 [2, 7]: 161 nM
– | – | 0.44 nM | COc1ccc2c(c1)C(=O)N(C[C@@]1(c3cc4cnc(Cl)cc4o3)NC(=O)NC1=O)C2 [Compound 2285] | AUC [1, 4]: 22.2 µM·h; IC50 [2, 5]: 368 nM
– | – | 0.695 nM | COc1ccc2c(c1)C(=O)N(C[C@@]1(c3cc4cc(C5(C)NC(=O)NC5=O)cnc4o3)NC(=O)NC1=O)C2 (stereo partly drawn) [Compound 500] | AUC ([1]; plasma 0.5-6 h): 1.1 µM·h; IC50 [2, 7]: 163 nM
0.06 µM·h | 463 nM | 0.875 nM | COc1ccc2c(c1)C(=O)N(C[C@@]1(c3cc4nc(N5CCN(CCN(C)C)CC5)ccc4o3)NC(=O)NC1=O)C2 [Compound 2142] | –

AUC ([1]; plasma 0.5-6 h post-dosing) | IC50 [2, 6] | Ki ([3]; read-out: Ki) | Compound | other results
1.39 µM·h | ≥ 10000 nM | 1.19 nM | COc1ccc2c(c1)C(=O)N(C[C@@]1(c3cc4cc(-c5ccccc5O)ncc4o3)NC(=O)NC1=O)C2 [Compound 2241] | –
0.033 µM·h | 325 nM | 0.976 nM | COc1ccc2c(c1)C(=O)N(C[C@@]1(c3cc4nc(N5C(=O)CC[C@H]5CO)ccc4o3)NC(=O)NC1=O)C2 [Compound 2156] | –
– | – | 0.6 nM | COc1ccc2c(c1F)C(=O)N(C[C@@]1(c3cc4c5c(ccc4o3)CNC5=O)NC(=O)NC1=O)C2 [Compound 2505] | AUC [1, 4]: 1.12 µM·h; IC50 [2, 5]: 151 nM
– | – | 0.66 nM | COc1ccc2c(c1F)C(=O)N(C[C@@]1(c3cc4nc(N5CCNC5=O)c(F)cc4o3)NC(=O)NC1=O)C2 [Compound 1331] | AUC ([1]; plasma 0.5-6 h): 0.67 µM·h; IC50 [2, 7]: 310 nM
3.81 µM·h | 772 nM | 0.763 nM | COc1ccc2c(c1)C(=O)N(C[C@@]1(c3cc4cnc(-c5cncnc5)cc4o3)NC(=O)NC1=O)C2 [Compound 2233] | –
– | – | 0.585 nM | COc1ccc2c(c1)C(=O)N(C[C@@]1(c3cc4nc(N5CCN(C(C)=O)CC5)ccc4o3)NC(=O)NC1=O)C2 [Compound 2400] | AUC [1, 4]: 0.439 µM·h; IC50 [2, 5]: 280 nM
– | – | 0.36 nM | COc1ccc2c(c1)C(=O)N(C[C@@]1(c3cc4c5c(ccc4o3)CNC5=O)NC(=O)NC1=O)C2 [Compound 2503] | AUC [1, 4]: 0.304 µM·h; IC50 [2, 5]: 170 nM
0.32 µM·h | 1010 nM | 0.408 nM | CCCn1cc(-c2ccc3oc([C@]4(CN5Cc6ccc(OC)cc6C5=O)NC(=O)NC4=O)cc3n2)cn1 [Compound 2117] | –
– | – | 0.323 nM | COc1ccc2c(c1F)C(=O)N(C[C@@]1(c3cc4c5c(ccc4o3)C(=O)NC5)NC(=O)NC1=O)C2 [Compound 2506] | AUC [1, 4]: 0.437 µM·h; IC50 [2, 5]: 156 nM
0.027 µM·h | 753 nM | 0.427 nM | COc1ccc2c(c1)C(=O)N(C[C@@]1(c3cc4cc(-c5ccc(O)cc5)ncc4o3)NC(=O)NC1=O)C2 [Compound 2243] | –
0.974 µM·h | 178 nM | 0.65 nM | COc1ccc2c(c1)C(=O)N(C[C@@]1(c3cc4ccc(NC(C)=O)nc4o3)NC(=O)NC1=O)C2 [Compound 2249] | –
– | – | 0.34 nM | COc1ccc2c(c1F)C(=O)N(C[C@@]1(c3cc4nc(N)ccc4o3)NC(=O)NC1=O)C2 [Compound 1910] | AUC ([1]; plasma 0.5-6 h): 0.351 µM·h; IC50 [2, 7]: 153 nM
0.037 µM·h | 181 nM | 0.59 nM | COc1ccc2c(c1)C(=O)N(C[C@@]1(c3cc4cc(C(=O)NCCN(C)C)c(F)cc4o3)NC(=O)NC1=O)C2 [Compound 1273] | –
– | – | 0.33 nM | COc1ccc2c(c1F)C(=O)N(C[C@@]1(c3cc4cc5c(c(F)c4o3)C(=O)NC5)NC(=O)NC1=O)C2 [Compound 2499] | AUC [1, 4]: 1.08 µM·h; IC50 [2, 5]: 72 nM
7 µM·h | 243 nM | 0.39 nM | COc1ccc2c(c1F)C(=O)N(C[C@@]1(c3cc4nc(-c5c(C)nn(C)c5C)ccc4o3)NC(=O)NC1=O)C2 [Compound 2119] | –
– | – | 0.55 nM | COc1ccc2c(c1)C(=O)N(C[C@@]1(c3cc4nc(C(N)=O)ccc4o3)NC(=O)NC1=O)C2 [Compound 1924] | AUC ([1]; plasma 0.5-6 h): 0.113 µM·h; IC50 [2, 7]: 200 nM
0.285 µM·h | 550 nM | 0.56 nM | COc1ccc2c(c1)C(=O)N(C[C@@]1(c3cc4cc(-c5cn[nH]c5)c(F)cc4o3)NC(=O)NC1=O)C2 [Compound 1186] | –
– | – | – | COc1ccc2c(c1)C(=O)N(C[C@@]1(c3cc4nc(N)ccc4o3)NC(=O)NC1=O)C2 [Compound 2314] | RR AUC (rapid rat AUC, rrAUC) ([1]; blood collected 0.5-6 h post-dosing): 0.424 µM·h; IC50 [2, 5]: 187 nM; Ki ([3]; Ki): 0.511 nM
127 µM·h | 14300 nM | 0.527 nM | COc1ccc2c(c1)C(=O)N(C[C@@]1(c3cc4cnc(-c5ccccc5F)cc4o3)NC(=O)NC1=O)C2 [Compound 2234] | –
– | – | – | COc1ccc2c(c1)C(=O)N(C[C@@]1(c3cc4nc(N)ccc4o3)NC(=O)NC1=O)C2 [Compound 1936] | AUC ([1]; plasma 0.5-6 h): 0.424 µM·h; IC50 [2, 7]: 187 nM; Ki ([3]; Ki): 0.51 nM

Compound | AUC ([1]; plasma 0.5-6 h post-dosing) | IC50 [2, 6] | Ki ([3]; read-out: Ki) | other results
COc1ccc2c(c1)C(=O)N(C[C@@]1(c3cc4nc(-n5cccn5)ccc4o3)NC(=O)NC1=O)C2 [Compound 2165] | 21 µM·h | 1370 nM | – | Ki ([3]; Ki): 0.405 nM
COc1ccc2c(c1)C(=O)N(C[C@@]1(c3cc4cnc(C(F)(F)F)cc4o3)NC(=O)NC1=O)C2 [Compound 2269] | 19.3 µM·h | 1620 nM | – | Ki ([3]; Ki): 0.497 nM
COc1ccc2c(c1)C(=O)N(C[C@@]1(c3cc4nc(-n5nc(N)cc5C)ccc4o3)NC(=O)NC1=O)C2 [Compound 2118] | 0.527 µM·h | 3790 nM | – | Ki ([3]; Ki): 0.6 nM
COc1ccc2c(c1)C(=O)N(C[C@@]1(c3cc4nc(N5CCN(C)CC5)ccc4o3)NC(=O)NC1=O)C2 [Compound 2108] | 0.43 µM·h | 150 nM | – | Ki ([3]; Ki): 0.613 nM
COc1ccc2c(c1)C(=O)N(C[C@@]1(c3cc4c(C)nc(C)cc4o3)NC(=O)NC1=O)C2 [Compound 2257] | 4.23 µM·h | 676 nM | 0.53 nM | –
CCNC(=O)Nc1ccc2oc([C@]3(CN4Cc5ccc(OC)cc5C4=O)NC(=O)NC3=O)cc2c1 [Compound 2229] | 0.158 µM·h | 457 nM | – | Ki ([3]; Ki): 0.388 nM
COc1ccc2c(c1)C(=O)N(C[C@@]1(c3cc4cc(-c5cc(N)n(C)n5)ccc4o3)NC(=O)NC1=O)C2 [Compound 2247] | 0.375 µM·h | 782 nM | – | Ki ([3]; Ki): 0.333 nM
